Three compounds from EPA's ToxValDB 9.5 (doi:10.2903/j.efsa.2014.3560) can be followed below.

Molecules are shown by their SMILES. Converted amounts (≈) assume the structure as drawn.

One data set relates to Canidae. The following applies: chronic; duration: 1 years; oral; Dog Other; clinical signs.
The subject of the next data set is Apis mellifera. The following applies: acute, duration: 48 hours, mortality.
In the next data set the test system is Bibionidae. The conditions noted are these: chronic/long-term; duration: 28 days; M/F; development.
Another data set deals with Colinus virginianus. The following applies: acute, oral, mortality.
The next data set concerns Lepomis macrochirus. The conditions noted are these: acute; duration: 96 hours; mortality.
Another data set concerns Pimephales promelas. The conditions noted are these: chronic/long-term.
A further data set deals with Rattus norvegicus. The following applies: for LD50: acute, oral, mortality; for NOAEL: reproduction developmental.
The subject of the next data set is Aphidius rhopalosiphi. Briefly: LR50; higher = less toxic. The conditions noted are these: not reported; mortality.
In the next data set the test system is Typhlodromus pyri. Briefly: LR50; higher = less toxic. The following applies: chronic/long-term; duration: 7 days; mortality.

The NOAEL is the highest tested level that showed no adverse finding. The compound `CC1(C)[C@H](/C=C(\Cl)C(F)(F)F)[C@@H]1C(=O)O[C@@H](C#N)c1cccc(Oc2ccccc2)c1` [lambda-Cyhalothrin] yielded an NOEC in the data set with Anas platyrhynchos (reproductive, reproduction) of 1.35 mg/kg-day. In the data set on Canidae, the NOAEL is 0.5 mg/kg-day.

As for `CC1(C)[C@H](C(=O)O[C@H](C#N)c2cccc(Oc3ccccc3)c2)[C@@H]1/C=C(\Cl)C(F)(F)F` [gamma-Cyhalothrin], the LD50 in the data set on Anas platyrhynchos (short-term, oral, feed, mortality) is greater than 429 mg/kg-day; in the data set with Apis mellifera (dermal), 0.005 µg/piece; in the data set on Apis mellifera (oral, unspecified) it was 4.2 µg/piece; in the data set on Colinus virginianus (diet), 225 mg/kg-day; with Colinus virginianus, greater than 2000 mg/kg-day; in the data set on Rattus norvegicus (F), greater than 55 mg/kg-day. In addition, in the data set with Rattus norvegicus (M), the LD50 was greater than 50 mg/kg-day. Further, the NOEC is 0.0469 µg/L with Bibionidae; 0.0155 µg/L in the data set with Pimephales promelas; 0.5 mg/kg in the data set on Tagia sp. (chronic/long-term, reproduction). Further, the NOAEL in the data set on Canidae and with Rattus norvegicus (body weight) was 0.5 mg/kg-day in each case. Moreover, the LC50 is 0.0354 ng/mL (≈ 0.0787 nM) with Lepomis macrochirus and greater than 1300 mg/kg with Tagia sp. (acute, duration: 14 days, mortality). In addition, the LR50 in the data set with Aphidius rhopalosiphi stood at 0.23 g/ha; in the data set with Typhlodromus pyri it was 0.0006 g/ha.

Consider `CC1(C)C(C=C(Cl)C(F)(F)F)C1C(=O)OC(C#N)c1cccc(Oc2ccccc2)c1` (stereo not drawn) [alpha-Cyhalothrin], for which the values for the NOAEL in the data set on Rattus norvegicus and in the data set on Rattus norvegicus (body weight) were 0.125 mg/kg-day and 0.5 mg/kg-day, respectively.
